Assay results as given in US20220213092A1, “BICYCLIC PYRAZOLE BRUTON'S TYROSINE KINASE INHIBITORS” (AbbVie Inc., priority 2020, published 2022).

How the values were obtained:
CYP3A4 = CYP3A4 induction assay (CYP 3A4 mRNA by qPCR in cryopreserved human hepatocytes); type: in vitro ADME; conditions: CYP3A4 mRNA fold change vs vehicle, 10 μM compound
Experimental: CYP induction was evaluated in vitro by determining the expression levels of CYP 3A4 mRNA using the qPCR (quantitative polymerase chain reaction) assay. On day one, cryopreserved human hepatocytes were thawed in prewarmed (37° C.) thawing medium (cryopreserved hepatocyte recovery medium, Gibco™ CM 7000; Thermo Fisher Scientific), centrifuged (1000 g for 10 minutes) and resuspended in plating medium (Gibco™ CM3000—Williams Medium E supplemented with hepatocytes plating supplement pak-serum containing; Thermo Fisher Scientific). Cells were counted by trypan blue exclusion using a hemocytometer and adjusted to a cell density of […]. Thereafter, […] of cell suspension was aliquoted per well in a 96-well plate, resulting in 60,000 cells/well. Plates were shaken in the north-south and east-west direction during plating. Plated cells were incubated at 37° C./5% CO2 in a humidified cell culture incubator for 4-6 hours. During this time, incubation medium (Gibco™ CM4000, cell maintenance supplement pack; Thermo Fisher Scientific) was mixed with Gibco™ Geltrex™ (Thermo Fischer Scientific) at the appropriate Geltrex™ protein concentration. Following recovery, medium was removed from cells and replaced with freshly prepared incubation medium. Cells were incubated overnight in a cell culture incubator (37° C./5% CO2).
The next day the incubation medium was prepared by combining the hepatocyte maintenance supplement pack with Williams medium E. The medium was warmed to 37° C. 1000× dimethyl sulfoxide compound stocks were prepared to the desired concentrations. 10 mM compound stocks in dimethyl sulfoxide were diluted (1 μL to 1 mL CM4000; final concentration=10 μM). Overlay medium was aspirated and […] dose solution added to the desired labeled 96 well plate. Cells were returned to the humidified incubator overnight (37° C./5% CO2).
On day 3, incubation medium was warmed to 37° C., and the same process for compound preparation repeated as in day 2, i.e. 1000× dimethyl sulfoxide compound stocks were prepared to the desired concentration, diluted (1:1000) in warm incubation medium, and this freshly prepared medium was used to replace treatment medium. Cells were returned to the humidified incubator (37° C./5% CO2) overnight.
On day 4, RNA isolation was performed. Prior to RNA isolation, cell viability was assessed using presto blue reagent. 10× dilution of PrestoBlue™ reagent (Thermo Fisher Scientific) was prepared by mixing 1.4 mL PrestoBlue™ with 12.6 mL incubation medium. Medium was aspirated from cells, and 100 μL of cell viability medium (10× dilution of PrestoBlue™ reagent) added and incubated for 17 minutes. Cell viability was determined by measuring absorbance using a microplate reader (Spark® 10M Tecan Life Sciences). After this measurement, media was aspirated using a multichannel aspirator and a glass pipet to completely aspirate from each well. Plates were stored or immediately used for mRNA isolation. All surfaces were cleaned using RNase away. 2× Lysis buffer was well mixed after incubation at ambient temperature. Fresh lysis buffer was prepared by mixing 0.125 μL of 0.5 mM DTT with 4.875 μL 2× lysis buffer. 1× lysis buffer containing DTT was then prepared by adding 5 μL dilution buffer to the 2× lysis buffer and mixing thoroughly. Thereafter, cell lysates were prepared by adding 1× lysis buffer to each sample well (96-well plate). Samples were incubated for 3-6 minutes at ambient temperature while shaking (350-400 rpm) to lyse the cells. Cells were scrapped with tips, and cell lysate (80 μL) was transferred to each well of the mRNA Catcher PLUS™ plate (Thermo Fisher Scientific). mRNA Catcher PLUS™ plate containing samples was covered with adhesive plastic film plate cover and incubated at ambient temperature for 45-60 minutes for RNA hybridization.
After hybridization, lysate was aspirated from the cells. […]

BTK = target: T1, BTK (Homo sapiens, UniProt Q06187); test: BTK kinase electrophoretic mobility shift assay (MSA); type: biochemical; conditions: 50 μM ATP, 0.5 nM BTK enzyme (Nanosyn-293HEK, WT), 3 hours at 25° C.; all examples except 50, 51, 62 and 63; read-out: BTK IC50
T1 construct: purchased Nanosyn, Santa Clara, Calif; host or cells: 293HEK

[1] = target: T2, Phosphorylation of Y223 of BTK (Homo sapiens, UniProt Q06187); test: Whole blood compound screening, phosphorylation of Y223 site of BTK (MSD assay); type: cell-based; conditions: healthy human whole blood, 2 hours at 37° C., 3 separate donors; read-out: WB BTK-pY223 EC50
T2 construct: host or cells: healthy human whole blood, 3 donors
Experimental: Healthy human whole blood (WB) was collected from […]™ Technologies or […]® in sodium heparinized tubes. Whole blood was stored at ambient temperature to avoid coagulation. Each compound was tested in 3 separate donors. Compound stock solutions (10 mM) were used to generate dose titration (8 concentrations, starting concentration 10 μM, 1:4 dilution) in appropriate volume of dimethyl sulfoxide (0.2%). Whole blood was incubated with compounds in 96-well plates for 2 hours in tissue culture incubators at 37° C. under a 5% CO2 atmosphere. The whole blood was lysed in equal volume of lysis buffer (Cell Signaling Technology®, Danvers, Mass.) containing complete protease inhibitor tablet, PhosSTOP™ tablet, sodium orthovanadate and sodium fluoride and phenylmethanesulfonyl fluoride solution. The lysed whole blood was then frozen at −80° C. for overnight.
Phosphorylation of Y223 of BTK was measured using an MSD assay (Meso Scale Diagnostics, LLC, Rockville, Md.). The thawed lysed whole blood was incubated with the capturing antibody rabbit anti-human BTK (D3H5) (Cell Signaling Technology, Danvers, Mass.) at 4° C. overnight. After washing out the unbound samples, the detection antibody biotinylated rabbit anti-pY223-BTK(D9T6H) (Cell Signaling Technology®, Danvers, Mass.) was added to the plates. After washing out the unbound antibodies, SULFO-TAG Streptavidin (Meso Scale Diagnostics, LLC, Rockville, Md.) was used for detection on Meso Sector S600 (Meso Scale Diagnostics, LLC, Rockville, Md.).
The EC50 values were determined using software from Dotmatics. The activity of exemplary compounds is illustrated below.

T1 sequence (Q06187 whole entry): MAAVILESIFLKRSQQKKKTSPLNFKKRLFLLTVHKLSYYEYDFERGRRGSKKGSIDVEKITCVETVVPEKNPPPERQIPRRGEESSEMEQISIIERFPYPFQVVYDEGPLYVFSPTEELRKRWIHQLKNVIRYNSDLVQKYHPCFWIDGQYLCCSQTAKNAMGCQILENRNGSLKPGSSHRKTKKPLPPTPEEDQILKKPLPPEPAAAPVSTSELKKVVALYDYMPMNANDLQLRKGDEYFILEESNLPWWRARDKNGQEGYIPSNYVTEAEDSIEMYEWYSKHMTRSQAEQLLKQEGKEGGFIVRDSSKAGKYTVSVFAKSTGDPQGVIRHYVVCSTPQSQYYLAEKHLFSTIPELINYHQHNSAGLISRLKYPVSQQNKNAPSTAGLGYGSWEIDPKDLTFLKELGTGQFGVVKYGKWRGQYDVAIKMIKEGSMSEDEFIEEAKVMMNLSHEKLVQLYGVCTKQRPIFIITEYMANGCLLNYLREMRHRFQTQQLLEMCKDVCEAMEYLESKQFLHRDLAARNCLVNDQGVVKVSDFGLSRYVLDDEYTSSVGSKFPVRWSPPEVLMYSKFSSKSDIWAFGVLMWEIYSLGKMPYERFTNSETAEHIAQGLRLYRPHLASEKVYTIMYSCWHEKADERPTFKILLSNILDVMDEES
T2 sequence (Q06187 whole entry): as above

Row | Compound | IC50 (BTK) | EC50 [1] | CYP3A4 Ind. fold (CYP3A4)
1 | C=CC(=O)N1C2CC1CN(C1CCNc3c1nn(-c1ccc(Oc4ccccc4)cc1)c3C(N)=O)C2 (stereo not shown) [Example 45, 2-(4-phenoxyphenyl)-7-[6-(prop-2-enoyl)-3,6-diazabicyclo[3.1.1]heptan-3-yl]-4,5,6,7-tetrahydro-2H-pyrazolo[4,3-b]pyridine-3-carboxamide] | 0.00233 µM |  | 25.40 fold
2 | C=CC(=O)N1CC(N2CCNc3c2nn(-c2ccc(Oc4ccc(F)cc4F)cc2)c3C(N)=O)C1 [Example 81, 2-[4-(2,4-difluorophenoxy)phenyl]-7-[1-(prop-2-enoyl)azetidin-3-yl]-4,5,6,7-tetrahydro-2H-pyrazolo[3,4-b]pyrazine-3-carboxamide] | 0.00524 µM | 0.0751 µM | 
3 | C=CC(=O)N1CCN([C@H]2CCNc3c2nn(-c2ccc(Oc4ccccc4)cc2)c3C(N)=O)CC12CC2 [Example 83, (7S)-2-(4-phenoxyphenyl)-7-[4-(prop-2-enoyl)-4,7-diazaspiro[2.5]octan-7-yl]-4,5,6,7-tetrahydro-2H-pyrazolo[4,3-b]pyridine-3-carboxamide] | 0.0666 µM | 1.73 µM | 
4 | C=CC(=O)N1CCN([C@@H]2CCNc3c2nn(-c2ccc(Oc4ccc(OC(F)(F)F)cc4)cc2)c3C(N)=O)CC1 [Example 85, (7R)-7-[4-(prop-2-enoyl)piperazin-1-yl]-2-{4-[4-(trifluoromethoxy)phenoxy]phenyl}-4,5,6,7-tetrahydro-2H-pyrazolo[4,3-b]pyridine-3-carboxamide] | 0.107 µM | 2.03 µM | 
5 | C=CC(=O)N1CCN([C@@H]2CCNc3c2nn(-c2ccc(Oc4ccc(OC)cc4)cc2)c3C(N)=O)CC1 [Example 87, (7R)-2-[4-(4-methoxyphenoxy)phenyl]-7-[4-(prop-2-enoyl)piperazin-1-yl]-4,5,6,7-tetrahydro-2H-pyrazolo[4,3-b]pyridine-3-carboxamide] | 0.00332 µM | 0.162 µM | 
6 | C=CC(=O)N1CCN([C@@H]2CCNc3c2nn(-c2ccc(Oc4cccc(OC(F)(F)F)c4)cc2)c3C(N)=O)CC1 [Example 89, (7R)-7-[4-(prop-2-enoyl)piperazin-1-yl]-2-{4-[3-(trifluoromethoxy)phenoxy]phenyl}-4,5,6,7-tetrahydro-2H-pyrazolo[4,3-b]pyridine-3-carboxamide] | 0.00175 µM | 0.525 µM | 
7 | C=CC(=O)N1CCN([C@@H]2CCNc3c2nn(-c2ccc(Oc4ccc(C)cc4)cc2)c3C(N)=O)CC1 [Example 92, (7R)-2-[4-(4-methylphenoxy)phenyl]-7-[4-(prop-2-enoyl)piperazin-1-yl]-4,5,6,7-tetrahydro-2H-pyrazolo[4,3-b]pyridine-3-carboxamide] | 0.00242 µM | 0.608 µM | 
8 | C=CC(=O)N1CCN([C@@H]2CCNc3c2nn(-c2ccc(Oc4ccccc4OC)cc2)c3C(N)=O)CC1 [Example 93, (7R)-2-[4-(2-methoxyphenoxy)phenyl]-7-[4-(prop-2-enoyl)piperazin-1-yl]-4,5,6,7-tetrahydro-2H-pyrazolo[4,3-b]pyridine-3-carboxamide] | 0.00509 µM | 0.4 µM | 

Now those with a lower IC50 (BTK), led by results:

Row | IC50 (BTK) | EC50 [1] | Compound | CYP3A4 Ind. fold (CYP3A4)
9 | 0.00166 µM | 0.399 µM | C=CC(=O)N1CCN([C@@H]2CCNc3c2nn(-c2ccc(Oc4cccc(OC)c4)cc2)c3C(N)=O)CC1 [Example 91, (7R)-2-[4-(3-methoxyphenoxy)phenyl]-7-[4-(prop-2-enoyl)piperazin-1-yl]-4,5,6,7-tetrahydro-2H-pyrazolo[4,3-b]pyridine-3-carboxamide] | 
10 | 0.0014 µM | 0.0456 µM | C=CC(=O)N1CCC(O)(C2CCNc3c2nn(-c2ccc(Oc4ccccc4)cc2)c3C(N)=O)CC1 (stereo not shown) [Example 84, 7-[4-hydroxy-1-(prop-2-enoyl)piperidin-4-yl]-2-(4-phenoxyphenyl)-4,5,6,7-tetrahydro-2H-pyrazolo[4,3-b]pyridine-3-carboxamide] | 
11 | 0.00129 µM | 0.933 µM | C=CC(=O)N1CCN([C@@H]2CCNc3c2nn(-c2ccc(Oc4ccccc4OC(F)(F)F)cc2)c3C(N)=O)CC1 [Example 90, (7R)-7-[4-(prop-2-enoyl)piperazin-1-yl]-2-{4-[2-(trifluoromethoxy)phenoxy]phenyl}-4,5,6,7-tetrahydro-2H-pyrazolo[4,3-b]pyridine-3-carboxamide] | 
12 | 0.000968 µM | 0.0855 µM | C=CC(=O)N1CC(N2CCNc3c2nn(-c2ccc(Oc4cccc(F)c4F)cc2)c3C(N)=O)C1 [Example 76, 2-[4-(2,3-difluorophenoxy)phenyl]-7-[1-(prop-2-enoyl)azetidin-3-yl]-4,5,6,7-tetrahydro-2H-pyrazolo[3,4-b]pyrazine-3-carboxamide] | 
13 | 0.000797 µM | 0.225 µM | C=CC(=O)N1CCN([C@@H]2CCNc3c2nn(-c2ccc(Oc4cccc(C)c4)cc2)c3C(N)=O)CC1 [Example 88, (7R)-2-[4-(3-methylphenoxy)phenyl]-7-[4-(prop-2-enoyl)piperazin-1-yl]-4,5,6,7-tetrahydro-2H-pyrazolo[4,3-b]pyridine-3-carboxamide] | 
14 | 0.000706 µM | 0.315 µM | C=CC(=O)N1CCN([C@@H]2CCNc3c2nn(-c2ccc(Oc4ccccc4C)cc2)c3C(N)=O)CC1 [Example 86, (7R)-2-[4-(2-methylphenoxy)phenyl]-7-[4-(prop-2-enoyl)piperazin-1-yl]-4,5,6,7-tetrahydro-2H-pyrazolo[4,3-b]pyridine-3-carboxamide] | 
15 | 0.000671 µM | 0.0579 µM | C=CC(=O)N1CCN([C@@H]2CCNc3c2nn(-c2ccc(Oc4cccc(C5CC5)c4)cc2)c3C(N)=O)CC1 [Example 78, (7R)-2-[4-(3-cyclopropylphenoxy)phenyl]-7-[4-(prop-2-enoyl)piperazin-1-yl]-4,5,6,7-tetrahydro-2H-pyrazolo[4,3-b]pyridine-3-carboxamide] | 
16 | 0.000533 µM | 0.0315 µM | C=CC(=O)N1CCN([C@@H]2CCNc3c2nn(-c2ccc(Oc4cccc(F)c4F)cc2)c3C(N)=O)CC1 [Example 77, (7R)-2-[4-(2,3-difluorophenoxy)phenyl]-7-[4-(prop-2-enoyl)piperazin-1-yl]-4,5,6,7-tetrahydro-2H-pyrazolo[4,3-b]pyridine-3-carboxamide] | 
17 | 0.000515 µM | 0.0441 µM | C=CC(=O)N1CCN([C@@H]2CCNc3c2nn(-c2ccc(Oc4ccccc4)cc2)c3C(N)=O)CC12CC2 [Example 82, (7R)-2-(4-phenoxyphenyl)-7-[4-(prop-2-enoyl)-4,7-diazaspiro[2.5]octan-7-yl]-4,5,6,7-tetrahydro-2H-pyrazolo[4,3-b]pyridine-3-carboxamide] | 
